The values below come from patent US20040127395A1 (priority 2002, published 2004).

Experiment [1] has as its system mouse bone marrow-derived mast cells. Put plainly: Histamine-induced mast cell chemotaxis in vitro (transwell). The experiment is classed as cell-based. The conditions noted are these: Mus musculus, Mast cell. Here is the method:
Mast cells were differentiated from bone marrow derived from BALB/c or C57bl/6j mice. Mice were sacrificed by asphyxiation under 95% CO2 and femurs were removed. Bone marrow was aseptically isolated from the femurs. The cells (5×10^5/mL) were cultured at 37° C. with 5% CO2 in culture medium consisting of RPMI with 10% FCS, 0.1 mM non-essential amino acids, 50 μg/mL penicillin/streptomycin and 20% conditioned WEHI-3 medium. Conditioned WEHI-3 medium was prepared from WEHI-3 cells (ATCC), which were cultured in Iscoves Dulbeccos medium with 10% FCS, 4 mM L-glutamine, 1.5 g/L sodium carbonate, 0.05 μM beta-mercaptoethanol and 50 μg/mL penicillin/streptomycin. The filtered supernatant was used as the conditioned WEHI-3 medium. After 16 h in culture, the bone marrow cells were transferred to a new flask. The medium was refreshed once per week. After four weeks, the cells were tested by flow cytometry for IgE receptor and CD117 (c-kit) expression. Mast cells were incubated with anti-DNP IgE (ICN Pharmaceuticals, Costa Mesa, Calif.) or vehicle for 30 min, followed by FITC labeled anti-IgE (Pharmingen) or FITC labeled CD117 (Pharmingen) for 30 min on ice. The cultured mast cells consisted of a homogeneous population which was >99% IgE receptor positive and >99% CD117 positive. Mast cells of four to eight weeks culture time were used for experiments.
Transwells (Costar, Cambridge, Mass.) of a pore size of […] were coated with 100 μL of 100 ng/mL human fibronectin (Sigma) for 2 h at room temperature. […] Mast cells (2×10^5/well) were added to the top chamber. The plates were incubated for 3 h at 37° C. Transwells were removed and the number of cells in the bottom chamber was counted for 60 sec using a flow cytometer.

Another experiment relates to human eosinophils. Put plainly: Histamine-induced eosinophil shape change (GAFS). Type of experiment: cell-based. The conditions noted are these: antagonist 10 μM. How it is done:
Human granulocytes were isolated from human blood by a Ficoll gradient. The red blood cells were lysed with 5-10× Qiagen lysis buffer at room temperature for 5-7 min. Granulocytes were harvested and washed once with FACS buffer. The cells were resuspended at a density of 2×10^6 cells/mL in reaction buffer. […] Ten minutes later, the cells were transferred to ice and fixed with 250 μL of ice-cold fixative buffer (2% formaldehyde) for 1 min.

The target in experiment [2] is human histamine H4 receptor (Homo sapiens, UniProt Q9H3N8). Put plainly: biochemical.
human histamine H4 receptor, sequence (Q9H3N8 whole entry): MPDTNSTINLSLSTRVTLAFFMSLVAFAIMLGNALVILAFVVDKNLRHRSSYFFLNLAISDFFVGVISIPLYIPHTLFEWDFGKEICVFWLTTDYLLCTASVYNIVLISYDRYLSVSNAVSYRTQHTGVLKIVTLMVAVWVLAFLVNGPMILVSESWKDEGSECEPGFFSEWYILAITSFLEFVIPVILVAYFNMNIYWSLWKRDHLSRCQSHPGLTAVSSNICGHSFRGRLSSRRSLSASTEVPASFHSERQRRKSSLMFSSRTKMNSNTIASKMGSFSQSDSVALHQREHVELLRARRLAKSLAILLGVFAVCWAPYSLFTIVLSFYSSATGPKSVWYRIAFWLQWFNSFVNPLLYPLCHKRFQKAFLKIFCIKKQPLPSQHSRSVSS

Usually inhibition stands for the drop in the measured response relative to a control, in per cent. Take `CN1CCN(C(=O)c2cc3sc(Cl)cc3[nH]2)CC1` [(2-Chloro-4H-thieno[3,2-b]pyrrol-5-yl)-(4-methyl-piperazin-1-yl)-methanone]: the inhibition at 1 µM in experiment [1] amounted to 92%.

For `Cc1ccc2[nH]c(C(=O)NC3CC4CCC(C3)N4C)nc2c1` (stereo not drawn) [5-Methyl-1H-benzoimidazole-2-carboxylic acid(8-methyl-8-aza-bicyclo[3.2.1]oct-3-yl)-amide], in experiment [1], the inhibition at 1 µM came out at 66% and the inhibition at 10 µM is 27%.

On to `CN1CCN(C(=O)c2cc3cc(Cl)sc3[nH]2)CC1` [(2-Chloro-6H-thieno[2,3-b]pyrrol-5-yl)-(4-methyl-piperazin-1-yl)-methanone], for which, in experiment [1], the inhibition at 1 µM was 103% and the inhibition at 10 µM is 106%.

Consider `CN(C)CCOC(c1ccccc1)c1ccccc1` [diphenhydramine], for which, in the experiment on human eosinophils, the “effect on histamine-induced eosinophil shape change” value is recorded as “did not alter”.

On to `CC1CN(C(=O)c2cc3scc(Br)c3[nH]2)CCN1` (stereo not drawn) [(3-Bromo-4H-thieno[3,2-b]pyrrol-5-yl)-(3-methyl-piperazin-1-yl)-methanone], for which, in experiment [1], the inhibition at 1 µM turned out to be 0% and the inhibition at 10 µM was 0%.

The Ki is the dissociation constant of the complex between target and ligand, obtained from inhibition or displacement. Higher therefore signals lower affinity. Consider `Cc1cc(Cl)cc2cc(C(=O)N3CCN(C)CC3)[nH]c12` [(5-Chloro-7-methyl-1H-indol-2-yl)-(4-methyl-piperazin-1-yl)-methanone], for which, in experiment [1], the inhibition at 1 µM was 100% and the inhibition at 10 µM came out at 97%. The molecule further displayed a Ki in experiment [2] of 1 nM.

As to `CN1CCN(C(=O)c2cc3cccc(N)c3[nH]2)CC1` [(7-Amino-1H-indol-2-yl)-(4-methyl-piperazin-1-yl)-methanone], the inhibition at 1 µM in experiment [1] stood at 99%. The molecule further returned a Ki in experiment [2] of 7 nM.

Consider `O=C(c1cc2cc(Cl)sc2[nH]1)N1CCN2CCCC2C1` (stereo not drawn) [(2-Chloro-6H-thieno[2,3-b]pyrrol-5-yl)-(hexahydro-pyrrolo[1,2-a]pyrazin-2-yl)-methanone], for which, in experiment [1], the inhibition at 1 µM worked out at 0% and the inhibition at 10 µM turned out to be 0%.

As to `CN1CCN(C(=O)c2nc3cc(F)c(F)cc3[nH]2)CC1` [(5,6-Difluoro-1H-benzoimidazol-2-yl)-(4-methyl-piperazin-1-yl)-methanone], in experiment [1], the inhibition at 1 µM is 72% and the inhibition at 10 µM was 97%.

Take `CN1CCN(C(=O)c2cc3cc(F)cc(F)c3[nH]2)CC1` [(5,7-Difluoro-1H-indol-2-yl)-(4-methyl-piperazin-1-yl)-methanone]: the inhibition at 1 µM in experiment [1] is 100%. This molecule also showed a Ki in experiment [2] of 19 nM.

With `O=C(c1nc2cc(Cl)ccc2[nH]1)N1CCNCC1` [(5-Chloro-1H-benzoimidazol-2-yl)-piperazin-1-yl-methanone], in experiment [1], the inhibition at 1 µM is 8% and the inhibition at 10 µM is 101%.

Take `O=C(c1cc2cc(Cl)ccc2[nH]1)N1CCNCC1` [(5-Chloro-1H-indol-2-yl)-piperazin-1-yl-methanone]: the inhibition at 1 µM in experiment [1] turned out to be 99%. The same molecule displayed a Ki in experiment [2] of 10 nM.

In the case of `Cc1csc2cc(C(=O)N3CCN(C)CC3)[nH]c12` [(4-Methyl-piperazin-1-yl)-(3-methyl-4H-thieno[3,2-b]pyrrol-5-yl)-methanone], the inhibition at 1 µM in experiment [1] was determined as 60%.

`CN1CCN(C(=O)c2cc3cccc(Cl)c3[nH]2)CC1` [(7-Chloro-1H-indol-2-yl)-(4-methyl-piperazin-1-yl)-methanone] returned a Ki in experiment [2] of 23 nM.

On to `COc1cccc(-c2ccc3[nH]c(C(=O)N4CCN(C)CC4)cc3c2)c1` [[5-(3-Methoxy-phenyl)-1H-indol-2-yl]-(4-methyl-piperazin-1-yl)-methanone], for which the Ki in experiment [2] worked out at 145 nM.

Regarding `CN1CCN(C(=O)c2cc3cc([N+](=O)[O-])ccc3[nH]2)CC1` [(4-Methyl-piperazin-1-yl)-(5-nitro-1H-indol-2-yl)-methanone], affinity in experiment [2] was put at a Ki of 46 nM.
